Test results taken from PMC3725993 (Bioorganic & medicinal chemistry letters, 2013).

Legend:
[1] = rat behavioral model; cited from earlier work
[2] = rats; cited from earlier work
[3] = Water solubility; type: physicochemical; conditions: statement in words

In the case of `CN1[C@@H](CC(=O)c2ccccc2)CCC[C@H]1C[C@H](O)c1ccccc1` [(−)-Lobeline], the “rewarding effects of methamphetamine” value [1] is listed as “decrease”.
In the case of `COc1ccc(CC[C@H]2CCC[C@@H](CCc3ccc(OC)cc3)N2C[C@@H](O)CO)cc1` [Compound 3], the “METH self-administration (SA) and reward” value [2] is listed as “blocked” and the responding for food [2] is listed as “no effect”.
For `COc1ccc(CC[C@@H]2CC[C@H](CCc3ccc(OC)cc3)N2C[C@@H](O)CO)cc1.Cl` [Compound 11d], the water solubility [3] was “water-soluble”.
With `Cl.OC[C@H](O)CN1[C@H](CCc2ccc(OC(F)F)cc2)CC[C@@H]1CCc1ccc(OC(F)F)cc1` [Compound 11f] the water solubility [3] was “water-soluble”.
